Where two headings read alike, the source gives them in different places.
Assays:
[1] = system: primary hepatocytes of propionic acidemia patients; assay: Propionyl-CoA from various sources in PA primary hepatocytes (Examples 2, 3); type: cell-based, human; details: Homo sapiens, Hepatocyte, read-out: concentration of propionyl-CoA EC50
Protocol: Primary hepatocytes isolated from livers of propionic acidemia patients are treated with increasing doses of compound 1 (0, 1, 3, 10, 30, 100, 300, 1000 μM) for 30 min. After 30 min the cells are challenged with the different sources of P-CoA, which may include ^13C-ketoisovaleric acid (KIVA) (1 mM), […] (ILE) (3 mM), ^13C-threonine (THR) (5 mM), ^13C-methionine (MET) (5 mM), ^13C-heptanoate (100 μM), or ^13C-propionate (5 mM) for 60 minutes. At the end of the challenge period, media is removed and the cells are lysed with 70% MeCN and 0.1% TFA containing 100 μM of ethymalonyl-CoA as an internal standard and harvested. Cell lysates are processed for HTMS/MS analysis.
Primary hepatocytes isolated from livers of propionic acidemia patients are treated with increasing doses of compound 5 (0, 0.1, 0.3, 1, 3, 10, 30, 100 μM) for 30 minutes. After 30 minutes the cells are challenged with the different sources of P-CoA, which may include ^13C-KIVA (1 mM), ^13C-isoleucine (3 mM), ^13C-threonine (5 mM), ^13C-methionine (5 mM), ^13C-heptanoate (100 μM), or ^13C-propionate (5 mM) for 60 minutes. At the end of the challenge period, media is removed and the cells are lysed with 70% MeCN and 0.1% TFA containing 100 μM of ethymalonyl-CoA as an internal standard and harvested. Cell lysates are processed for HTMS/MS analysis.

[2] = system: primary hepatocytes of methylmalonic acidemia patients; assay: Propionyl-CoA and methylmalonyl-CoA from various sources in MMA primary hepatocytes (Examples 4, 5); type: cell-based, human; details: Homo sapiens, Hepatocyte
Protocol: (§1) Primary hepatocytes isolated from livers of methylmalonic acidemia patients are treated with increasing doses of compound 1 (0, 1, 3, 10, 30, 100, 300, 1000 μM) for 30 minutes. […] At the end of the challenge period, media is removed and the cells are lysed with 70% MCCN and 0.1% TFA containing 100 μM of ethymalonyl-CoA as an internal standard and harvested. Cell lysates are processed for HTMS/MS analysis.
as §1, with “compound 5” for “compound 1”, “(0, 0.1, 0.3,” for “(0,”, “30, 100” for “30, 100, 300, 1000”, “30 min.” for “30 minutes.”, “70% MeCN” for “70% MCCN”

PA primary hepatocytes = assay: Static cell culture, low/high propiogenic media, PA primary hepatocytes; type: cell-based, human; details: for EC50 / EC90: Homo sapiens, Hepatocyte
Protocol: (§2) Unlike the HemoShear Technology, this assay is carried out without constant perfusion, utilizing cell culture media that was customized to mimic plasma levels of propiogenic sources (amino acids and ketoacids) in PA and MMA patients during periods of relative metabolic stability (low propiogenic media) and acute metabolic crisis (high propiogenic media). PA and MMA pHeps, in static cell culture, were treated with Compound 5 (concentrations ranging from 0.1 μM to 100 μM) for 30 minutes in low propiogenic media, followed by either a continuation of low propiogenic media or a switch to the high propiogenic media for 1 hour. The media used during the 1-hour incubation contained propiogenic SIL amino acids and ketoacids which are metabolized into labeled P-CoA and M-CoA in the cells. The SIL amino acids and ketoacids were a mix of ^13C and MeD8 labelling, but their catabolism produced a SIL P-CoA (denoted as ^13C-P-CoA for simplicity) with the same mass, independent of the type of SIL (also true for ^13C-M-CoA).

MMA primary hepatocytes = assay: Static cell culture, low/high propiogenic media, MMA primary hepatocytes; type: cell-based, human; details: MMA pHeps; for EC50 / EC90: Homo sapiens, Hepatocyte
Protocol: as §2

clinical = assay: clinical; set-up: species or system human; details: in vivo; for AUC / Cmax: human
Protocol: In some embodiments, the method entails administering 2,2-dimethylbutyric acid, or a CoA ester or carnitine ester thereof, or a pharmaceutically acceptable salt, ester, or solvate thereof, at a concentration ranging from about, including about […] to 50 mg/kg.

[3] = PA pHeps, high propiogenic, static culture
[4] = PA pHeps, low propiogenic, static culture
[5] = high propiogenic, static culture
[6] = low propiogenic, static culture

Compound: CCC(C)(C)C(=O)O [Compound 5, 2,2-dimethybutanoic acid]
- EC50 ([1]; 1 mM 13C-KIVA): 890 nM
- EC50 ([1]; 3 mM 13C-ILE): 420 nM
- EC50 ([1]; 5 mM 13C-THR): 1240 nM
- EC50 ([1]; 5 mM 13C-propionate): 15300 nM
- EC50 ([2]; 100 μM 13C-heptanoate, read-out: concentration of methylmalonyl-CoA EC50): 20 nM
- EC50 ([2]; 100 μM 13C-heptanoate, read-out: concentration of propionyl-CoA EC50): 3840 nM
- EC50 ([2]; 1 mM 13C-KIVA, read-out: concentration of methylmalonyl-CoA EC50): 1170 nM
- EC50 ([2]; 1 mM 13C-KIVA, read-out: concentration of propionyl-CoA EC50): 930 nM
- EC50 ([2]; 3 mM 13C-ILE, read-out: concentration of methylmalonyl-CoA EC50): 1380 nM
- EC50 ([2]; 3 mM 13C-ILE, read-out: concentration of propionyl-CoA EC50): 2040 nM
- EC50 (PA primary hepatocytes; PA pHeps, high propiogenic media, static, read-out: 13C-Propionyl-CoA (13C-P-CoA) EC50): 1700 ± 1000 nM
- EC90 (PA primary hepatocytes; PA pHeps, high propiogenic media, static, read-out: 13C-Propionyl-CoA (13C-P-CoA) EC90): 11600 ± 7400 nM
- EC50 (PA primary hepatocytes; PA pHeps, high propiogenic, static culture, read-out: 12C-Acetyl-CoA EC50): 700 ± 500 nM
- EC90 (PA primary hepatocytes; PA pHeps, high propiogenic, static culture, read-out: 12C-Acetyl-CoA EC90): 1900 ± 1300 nM
- EC50 (PA primary hepatocytes; PA pHeps, high propiogenic, static culture, read-out: CoASH EC50): 2100 ± 1600 nM
- EC90 (PA primary hepatocytes; PA pHeps, high propiogenic, static culture, read-out: CoASH EC90): 11100 ± 13000 nM
- EC50 (PA primary hepatocytes; PA pHeps, high propiogenic, static culture, read-out: Compound 5-CoA (formation) EC50): 2600 ± 1600 nM
- EC90 (PA primary hepatocytes; PA pHeps, high propiogenic, static culture, read-out: Compound 5-CoA (formation) EC90): 42000 ± 45800 nM
- EC50 (PA primary hepatocytes; PA pHeps, low propiogenic media, static, read-out: 13C-Propionyl-CoA (13C-P-CoA) EC50): 2000 ± 1800 nM
- EC90 (PA primary hepatocytes; PA pHeps, low propiogenic media, static, read-out: 13C-Propionyl-CoA (13C-P-CoA) EC90): 6900 ± 5400 nM
- EC50 (PA primary hepatocytes; PA pHeps, low propiogenic, static culture, read-out: 12C-Acetyl-CoA EC50): 400 ± 200 nM
- EC90 (PA primary hepatocytes; PA pHeps, low propiogenic, static culture, read-out: 12C-Acetyl-CoA EC90): 1600 ± 1300 nM
- EC50 (PA primary hepatocytes; PA pHeps, low propiogenic, static culture, read-out: CoASH EC50): 900 ± 300 nM
- EC90 (PA primary hepatocytes; PA pHeps, low propiogenic, static culture, read-out: CoASH EC90): 9100 ± 5800 nM
- EC50 (PA primary hepatocytes; PA pHeps, low propiogenic, static culture, read-out: Compound 5-CoA (formation) EC50): 1400 ± 600 nM
- EC90 (PA primary hepatocytes; PA pHeps, low propiogenic, static culture, read-out: Compound 5-CoA (formation) EC90): 15300 ± 11300 nM
- EC90 (PA primary hepatocytes; static cell culture, PA and MMA pHeps, low and high propiogenic media together, read-out: average EC90 value across all biomarkers): 11000 ± 9600 nM
- 13C-Propionyl-CoA (13C-P-CoA) % change at 30 μM (PA primary hepatocytes; PA pHeps, high propiogenic media, static): −85.3±9.1%
- 12C-Acetyl-CoA Percent change (30 μM) (PA primary hepatocytes; [3]): −27 ± 3.4%
- CoASH Percent change (30 μM) (PA primary hepatocytes; [3]): −48 ± 14.3%
- 13C-Propionyl-CoA (13C-P-CoA) % change at 30 μM (PA primary hepatocytes; PA pHeps, low propiogenic media, static): −76.4±12.6%
- 12C-Acetyl-CoA Percent change (30 μM) (PA primary hepatocytes; [4]): −36.6 ± 13.5%
- CoASH Percent change (30 μM) (PA primary hepatocytes; [4]): −55.2 ± 7.1%
- EC50 (MMA primary hepatocytes; high propiogenic media, static, read-out: 12C-Methylmalonyl-CoA (13C-M-CoA) EC50): 2700 ± 1600 nM
- EC90 (MMA primary hepatocytes; high propiogenic media, static, read-out: 12C-Methylmalonyl-CoA (13C-M-CoA) EC90): 21200 ± 2000 nM
- EC50 (MMA primary hepatocytes; high propiogenic media, static, read-out: 13C-Methymalonic acid EC50): 1100 ± 900 nM
- EC90 (MMA primary hepatocytes; high propiogenic media, static, read-out: 13C-Methymalonic acid EC90): 4600 ± 3000 nM
- EC50 (MMA primary hepatocytes; high propiogenic media, static, read-out: 13C-Propionyl-CoA (13C-P-CoA) EC50): 1600 ± 800 nM
- EC90 (MMA primary hepatocytes; high propiogenic media, static, read-out: 13C-Propionyl-CoA (13C-P-CoA) EC90): 48200 ± 47500 nM
- EC50 (MMA primary hepatocytes; high propiogenic, static culture, read-out: 12C-Acetyl-CoA EC50): 1400 ± 1400 nM
- EC90 (MMA primary hepatocytes; high propiogenic, static culture, read-out: 12C-Acetyl-CoA EC90): 6400 ± 7100 nM
- EC50 (MMA primary hepatocytes; high propiogenic, static culture, read-out: CoASH EC50): 13100 ± 14800 nM
- EC90 (MMA primary hepatocytes; high propiogenic, static culture, read-out: CoASH EC90): 65600 ± 81200 nM
- EC50 (MMA primary hepatocytes; high propiogenic, static culture, read-out: Compound 5-CoA (formation) EC50): 5400 ± 2800 nM
- EC90 (MMA primary hepatocytes; high propiogenic, static culture, read-out: Compound 5-CoA (formation) EC90): 80100 ± 57000 nM
- EC50 (MMA primary hepatocytes; low propiogenic media, static, read-out: 12C-Methylmalonyl-CoA (13C-M-CoA) EC50): 2900 ± 1600 nM
- EC90 (MMA primary hepatocytes; low propiogenic media, static, read-out: 12C-Methylmalonyl-CoA (13C-M-CoA) EC90): 30900 ± 16200 nM
- EC50 (MMA primary hepatocytes; low propiogenic media, static, read-out: 13C-Methymalonic acid EC50): 1200 ± 1300 nM
- EC90 (MMA primary hepatocytes; low propiogenic media, static, read-out: 13C-Methymalonic acid EC90): 5200 ± 3300 nM
- EC50 (MMA primary hepatocytes; low propiogenic media, static, read-out: 13C-Propionyl-CoA (13C-P-CoA) EC50): 1300 ± 600 nM
- EC90 (MMA primary hepatocytes; low propiogenic media, static, read-out: 13C-Propionyl-CoA (13C-P-CoA) EC90): 15700 ± 18000 nM
- EC50 (MMA primary hepatocytes; low propiogenic, static culture, read-out: 12C-Acetyl-CoA EC50): 2500 ± 2600 nM
- EC90 (MMA primary hepatocytes; low propiogenic, static culture, read-out: 12C-Acetyl-CoA EC90): 28400 ± 52000 nM
- EC50 (MMA primary hepatocytes; low propiogenic, static culture, read-out: CoASH EC50): 2300 ± 1600 nM
- EC90 (MMA primary hepatocytes; low propiogenic, static culture, read-out: CoASH EC90): 14200 ± 13500 nM
- EC50 (MMA primary hepatocytes; low propiogenic, static culture, read-out: Compound 5-CoA (formation) EC50): 2000 ± 700 nM
- EC90 (MMA primary hepatocytes; low propiogenic, static culture, read-out: Compound 5-CoA (formation) EC90): 18000 ± 15700 nM
- 12C-Methylmalonyl-CoA (13C-M-CoA) % change at 30 μM (MMA primary hepatocytes; high propiogenic media, static): −73±5.8%
- 13C-Methymalonic acid % change at 30 μM (MMA primary hepatocytes; high propiogenic media, static): −91 ± 4%
- 13C-Propionyl-CoA (13C-P-CoA) % change at 30 μM (MMA primary hepatocytes; high propiogenic media, static): −75.9±7.3%
- 12C-Acetyl-CoA Percent change (30 μM) (MMA primary hepatocytes; [5]): −14.6 ± 12.6%
- CoASH Percent change (30 μM) (MMA primary hepatocytes; [5]): −28.7 ± 7.3%
- 12C-Methylmalonyl-CoA (13C-M-CoA) % change at 30 μM (MMA primary hepatocytes; low propiogenic media, static): −76.5±13.2%
- 13C-Methymalonic acid % change at 30 μM (MMA primary hepatocytes; low propiogenic media, static): −83.2 ± 5%
- 13C-Propionyl-CoA (13C-P-CoA) % change at 30 μM (MMA primary hepatocytes; low propiogenic media, static): −77.6±9.8%
- 12C-Acetyl-CoA Percent change (30 μM) (MMA primary hepatocytes; [6]): −35.5 ± 18.1%
- CoASH Percent change (30 μM) (MMA primary hepatocytes; [6]): −47.7 ± 13.4%
- AUC (clinical; 30 mg/kg): 2180 µg·h/mL
- Cmax (clinical; 30 mg/kg): 156 µg/mL
- AUC (clinical; 40 mg/kg): 2620 µg·h/mL
- Cmax (clinical; 40 mg/kg): 203 µg/mL
- AUC (clinical; 50 mg/kg): 3200 µg·h/mL
- Cmax (clinical; 50 mg/kg): 256 µg/mL
- Blood plasma concentrations following administration (dose dependence) (clinical): dose proportional

— patent US20220142955A1, “METHODS OF TREATING ORGANIC ACIDEMIAS” (HemoShear Therapeutics, Inc., priority 2019, published 2022)
